Measurements reported in ChEMBL document CHEMBL4834424, “Targeting Chikungunya Virus Replication by Benzoannulene Inhibitors” (J Med Chem, 2021).
In brackets after ≈: the same amount, converted by molar mass.

Columns and labels:
[1] = Octanol-aqueous buffer distribution coefficient, log D of the compound by LC-MS analysis; type: physicochemical
[2] = Metabolic stability in human liver microsomes assessed as half life in presence of NADPH incubated up to 45 mins by LC-MS/MS analysis; type: ADME, Microsome
[3] = (§1) Cytotoxicity against human NHDF cells assessed as cell viability measured after 24 hrs by Cell Titer Glo luminescent assay; type: cell-based; conditions: NHDF cells
[4] = system: Chikungunya virus; assay: (§2) Antiviral activity against CHIKV infected in human NHDF cells assessed as reduction in virus titer in cell supernatant by measuring inhibition of plaque formation using Vero cells pretreated with NHDF cells followed by infected with virus incubated for 24 hrs and measured following infection of supernatants with Vero cells for 48 hrs by plaque based methylene blue dye analysis; type: functional, organism-based
[5] = Aqueous solubility of the compound; type: physicochemical
[6] = Metabolic stability in mouse liver microsomes assessed as half life in presence of NADPH incubated up to 45 mins by LC-MS/MS analysis; type: ADME, Microsome; design: unit not given here; conditions: for half-life: liver microsomes
[7] = system: Chikungunya virus; assay: as §2, with “Vero cells at 10 uM pretreated with” for “Vero cells pretreated with”; type: functional; conditions: time 72 hrs
[8] = system: NHDF; assay: as §1; type: cell-based; conditions: nhdf, 24 h
[9] = target: Dihydroorotate dehydrogenase (quinone), mitochondrial (Homo sapiens, UniProt Q02127)
Sequence of Dihydroorotate dehydrogenase (quinone), mitochondrial (Q02127 whole entry): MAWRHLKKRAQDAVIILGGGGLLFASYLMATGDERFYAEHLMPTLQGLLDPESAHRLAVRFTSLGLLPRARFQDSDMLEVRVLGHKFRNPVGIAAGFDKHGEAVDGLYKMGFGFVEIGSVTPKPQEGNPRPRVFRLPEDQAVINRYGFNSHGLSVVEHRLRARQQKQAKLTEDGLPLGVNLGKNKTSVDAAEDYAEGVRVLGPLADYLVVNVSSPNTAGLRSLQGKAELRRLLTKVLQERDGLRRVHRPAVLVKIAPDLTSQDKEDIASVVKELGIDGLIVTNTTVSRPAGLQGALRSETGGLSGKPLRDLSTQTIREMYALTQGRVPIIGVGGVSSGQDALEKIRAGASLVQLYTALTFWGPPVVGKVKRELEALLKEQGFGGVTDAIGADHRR

[10] = system: Chikungunya virus; type: functional; conditions: 181-25, C6, time 48 hrs
[11] = system: Venezuelan equine encephalitis virus; assay: (§3) Antiviral activity against Venezuelan equine encephalitis virus TC83 infected in Asian tiger mosquito C6/36 cells assessed as reduction in virus titer in cell supernatant by measuring inhibition of plaque formation using Vero cells and measured following infection of supernatants with Vero cells for 48 hrs pi by serial dilution plaque based methylene blue dye analysis; type: functional
[12] = system: West Nile virus; assay: as §3, with “West nile” for “Venezuelan equine encephalitis”, “virus” for “virus TC83”, “HEK293” for “Asian tiger mosquito C6/36”, “at 10 uM” for “and”; type: functional
[13] = system: dengue virus type 2; assay: as §3, with “DENV2” for “Venezuelan equine encephalitis virus TC83”, “HEK293” for “Asian tiger mosquito C6/36”, “at 10 uM” for “and”; type: functional
[14] = Cytotoxicity against HEK293 cells at 10 uM; type: cell-based; conditions: human

COc1cc2c(cc1NC(=O)c1ccc(C(C)(C)O)cc1)CCCCC2
logD [1]: 4
half-life [2]: 254 h
CC50 at 24 h [3]: > 30 µM
EC50 [4]: 2.45 µM
solubility ([5]; aqueous, read-out: solubility): 8 µM (≈ 2.83 µg/mL)
half-life [6]: 1140
log(activity) [7]: 1.6

CC(C)(C)c1ccc(C(=O)Nc2cc3c(cc2OCc2ccccn2)CCCCC3)cc1
CC50 [8]: 9.4 µM
log(activity) [7]: <1

COc1cc2c(cc1C(=O)Nc1ccc(C(C)(C)O)cc1)CCCCC2
IC50 [9]: 24.1 µM
CC50 at 24 h [3]: > 30 µM
EC50 [4]: 8 µM
log(activity) [7]: 1.6

COc1cc2c(cc1NC(=O)c1ccc(C(C)(C)C(F)(F)F)cc1)CCCCC2
logD [1]: 6
half-life [2]: 106 h
CC50 at 24 h [3]: > 30 µM
EC50 [4]: 3.47 µM
solubility ([5]; aqueous, read-out: solubility): < 1 µM
half-life [6]: 2100
log(activity) [7]: 1.8

CC(C)(C)c1ccc(C(=O)Nc2cc3c(cc2O)CCCCC3)cc1
logD [1]: 5
IC50 [9]: > 30 µM
half-life [2]: 74 h
CC50 at 24 h [3]: > 30 µM
EC50 [4]: 0.4 µM
solubility ([5]; buffer): 1 µM (≈ 0.337 µg/mL)
half-life [6]: 1860
log(activity) [7]: 3.5

CC(C)(C)c1ccc(C(=O)Nc2cc3c(cc2CO)CCCCC3)cc1
logD [1]: 4
half-life [2]: 64 h
CC50 at 24 h [3]: > 30 µM
solubility ([5]; aqueous, read-out: solubility): < 1 µM
half-life [6]: 1320
log(activity) [7]: <1

COc1cc2c(cc1C(=O)Nc1ccc(C(C)(C)C)cc1)CCCCC2
EC90 [10]: 1.6 µM
logD [1]: 4
IC50 [9]: 3 µM
EC90 [11]: 2.9 µM
log(activity) [12]: 1.7
log(activity) [13]: 1.9
half-life [2]: 99 h
CC50 at 24 h [3]: > 30 µM
EC50 [4]: 0.48 µM
solubility ([5]; aqueous, read-out: solubility): 0.5 µM (≈ 0.176 µg/mL)
log(activity) [7]: 3.2

COc1cc2c(cc1C(=O)Nc1ccc(C(C)(C)C)cn1)CCCCC2
IC50 [9]: > 30 µM

CC(C)(C)c1ccc(C(=O)Nc2cc3c(cc2F)CCCCC3)cc1
logD [1]: 4
half-life [2]: 28 h
CC50 at 24 h [3]: > 30 µM
EC50 [4]: 0.8 µM
solubility ([5]; aqueous, read-out: solubility): 33 µM (≈ 11.2 µg/mL)
t1/2 ([6]; microsomes, 0.75 h): 4
log(activity) [7]: 4.9

COc1cc2c(cc1NC(=O)c1ccc(C3(C(F)(F)F)CC3)cc1)CCCCC2
logD [1]: 6
half-life [2]: 67 h
CC50 at 24 h [3]: > 30 µM
EC50 [4]: 1.3 µM
solubility ([5]; aqueous, read-out: solubility): < 1 µM
half-life [6]: 1320
log(activity) [7]: 1

CC(C)(C)c1ccc(C(=O)Nc2cc3c(cc2C#N)CCCCC3)cc1
logD [1]: 5
half-life [2]: 76 h
CC50 at 24 h [3]: > 30 µM
EC50 [4]: 4.4 µM
solubility ([5]; aqueous, read-out: solubility): < 1 µM
half-life [6]: 1860
log(activity) [7]: 1.8

CC(C)(C)c1ccc(NC(=O)c2cc3c(cc2O)CCCCC3)cc1
logD [1]: 4.2
IC50 [9]: > 30 µM
half-life [2]: 49 h
CC50 at 24 h [3]: > 30 µM
EC50 [4]: 1.54 µM
solubility ([5]; aqueous, read-out: solubility): < 1 µM
half-life [6]: 4680
log(activity) [7]: 3.3

CCc1cc2c(cc1NC(=O)c1ccc(C(C)(C)C)cc1)CCCCC2
logD [1]: 5
IC50 [9]: > 30 µM
half-life [2]: 37 h
CC50 at 24 h [3]: > 30 µM
EC50 [4]: 1.7 µM
solubility ([5]; aqueous, read-out: solubility): < 1 µM
half-life [6]: 660
log(activity) [7]: 4.9

CC(C)(C)c1ccc(NC(=O)c2ccc3c(c2)CCCCC3)cc1
CC50 [14]: > 30 µM
CC50 at 24 h [3]: > 30 µM
EC50 [4]: 7 µM
log(activity) [7]: 4.2

COc1cc2c(nc1NC(=O)c1ccc(C(C)(C)C)cn1)CCCCC2
IC50 [9]: > 30 µM
CC50 at 24 h [3]: > 30 µM
EC50 [4]: 2.9 µM
log(activity) [7]: 4.05

COc1nc2c(cc1C(=O)Nc1ncc(C(C)(C)C)cn1)CCCCC2
logD [1]: 3
half-life [2]: 67 h
CC50 at 24 h [3]: > 30 µM
EC50 [4]: 9 µM
solubility ([5]; buffer): 64 µM (≈ 22.7 µg/mL)
half-life [6]: 1620
log(activity) [7]: 1.95

COc1nc2c(cc1C(=O)Nc1ccc(C(C)(C)C)cc1)CCCCC2
logD [1]: 4.6
half-life [2]: 102 h
CC50 at 24 h [3]: > 30 µM
solubility ([5]; aqueous, read-out: solubility): 1.8 µM (≈ 0.634 µg/mL)
half-life [6]: 2700
log(activity) [7]: 1.3

COc1cc2c(cc1NC(=O)c1ccc(C(C)(C)C#N)cc1)CCCCC2
logD [1]: 4
half-life [2]: 51 h
CC50 at 24 h [3]: > 30 µM
EC50 [4]: 1.6 µM
solubility ([5]; aqueous, read-out: solubility): 35 µM (≈ 12.7 µg/mL)
half-life [6]: 720
log(activity) [7]: 1.7

CC(C)(C)c1ccc(C(=O)Nc2ccc3c(c2)CCCCC3)cc1
logD [1]: 4
half-life [2]: 33 h
CC50 at 24 h [3]: > 30 µM
EC50 [4]: 0.7 µM
solubility ([5]; buffer): 35 µM (≈ 11.3 µg/mL)
half-life [6]: 1380
log(activity) [7]: 3.9

CCOc1cc2c(cc1NC(=O)c1ccc(C(C)(C)C)cc1)CCCC2
CC50 [8]: 3.86 µM
EC50 [4]: 7.78 µM
log(activity) [7]: 1

COc1nc2c(cc1C(=O)Nc1ccc(C(C)(C)C)cn1)CCCCC2
logD [1]: > 4.7
half-life [2]: 88 h
CC50 at 24 h [3]: > 30 µM
solubility ([5]; aqueous, read-out: solubility): < 1 µM
half-life [6]: 3960
log(activity) [7]: 0.27

Cc1cc2c(cc1NC(=O)c1ccc(C(C)(C)C)cc1)CCCCC2
logD [1]: 4
half-life [2]: 63 h
CC50 at 24 h [3]: > 30 µM
EC50 [4]: 2.41 µM
solubility ([5]; aqueous, read-out: solubility): < 1 µM
half-life [6]: 660
log(activity) [7]: 3.5

COc1cc2c(cc1NC(=O)c1ccc(C(O)(C(F)(F)F)C(F)(F)F)cc1)CCCCC2
logD [1]: 5
half-life [2]: 70 h
CC50 at 24 h [3]: > 30 µM
EC50 [4]: 2.8 µM
solubility ([5]; aqueous, read-out: solubility): < 1 µM
half-life [6]: 660
log(activity) [7]: 3.1

COc1cc2c(cc1C(=O)Nc1cc(C(C)(C)C)[nH]n1)CCCCC2
IC50 [9]: > 30 µM
